Results taken from patent US8147444B2, “Methods of treating or preventing peritonitis with oxidative reductive potential water solution” (Oculus Innovative Sciences, Inc., priority 2006, dated 2012).
Read-outs that look alike come from different tables or passages of the source. Bridge positions count the residues as written; N and C are the ends. Square brackets hold non-standard residues; d marks the D form. Peptide text beside a SMILES is read from it. * marks the point of attachment. Ileψ(thiazoline)Cys = CC[C@H](C)[C@H](N)C1=N[C@H](C(=O)*)CS1; dOrn = NCCC[C@@H](N)C(=O)O

Experiments:
[1] = system: B. atropheus spores, Pseudomonas aeruginosa, and Staphylococcus aureus; assay: Bacterial suspension assay, test organisms not told apart; assay type: cell-based; conditions: Bacitracin 33 Units/ml; over the time periods tested
Description: Dermacyn is a ready to use product, therefore performing dilutions during testing was not required.
A purchased spore suspension of B. atropheus at 2.5×10^7/ml was used for testing. In addition fresh suspensions of Pseudomonas aeruginosa, and Staphylococcus aureus were prepared and measured using a spectrophotometer to ensure the titer was acceptable
Nine microliters of test substance was added to 100 ul of microbe suspension. The test mixture was held at 20° C. for the contact times of 20 seconds, 5 minutes, and 20 minutes. […] (entire mixture) was added to 9.0 ml of neutralizer for 20 minutes (this is the original neutralization tube or ONT) 1.0 ml of the neutralized test mixture was plated on Tryptic Soy Agar in duplicate for the 5 minute and 20 minute contact times. Additional dilutions and spread plates were used for the 20 second time point, to achieve countable plates.
All plates were incubated at 30° C.-35° C. for a total of 3 days and were evaluated after each day of incubation.

[2] = system: primary HDF cultures; conditions: human, 1 month, 5 µM
[3] = system: human diploid fibroblasts (HDFs); assay: Cell viability, apoptosis and necrosis by flow cytometry; assay type: cell-based; conditions: 880 mM
Description: HP is known to be toxic to eukaryotic cells, increasing apoptosis and necrosis and reducing cellular viability. […] HDF cultures were obtained from three different foreskins, which were pooled and cryopreserved together for the purpose of this study. Only diploid cells were used for all experiments. […] Simultaneous analyses of these parameters were performed in the same cell populations by flow cytometry using: […] B) Annexin V-FITC; and C) Propidium iodide. FIG. 4A-4C disclose percentage values expressed as mean±SD (n=3).

[4] = system: murine polychromatic erythrocytes
Description: The mammalian in vivo micronucleus test is used for the identification of substances which cause damage to chromosomes or the mitotic apparatus of murine polychromatic erythrocytes. This damage results in the formation of “micronuclei,” intracellular structures containing lagging chromosome fragments or isolated whole chromosomes. […] The positive control mice received a single intraperitoneal injection of cyclophosphamide (8 mg/mL, 12.5 ml/kg) on day 2. All mice were observed immediately after injection for any adverse reactions. […] On day 3, all mice were weighed and terminated.
The femurs were excised from the terminated mice, the bone marrow was extracted, and duplicate smear preparations were performed for each mouse. The bone marrow slides for each animal were read at 40× magnification. The ratio of polychromatic erythrocytes (PCE) to normochromatic erythrocytes (NCE), an index of bone marrow toxicity, was determined for each mouse by counting a total of at least 200 erythrocytes. Then a minimum of 2000 scoreable PCE per mouse were evaluated for the incidence of micronucleated polychromatic erythrocytes. Statistical analysis of the data were done using the Mann and Whitney test (at 5% risk threshold) from a statistical software package (Statview 5.0, SAS Institute Inc., USA).

Compound: CC[C@H](C)[C@H](N)C1=N[C@H](C(=O)N[C@@H](CC(C)C)C(=O)N[C@H](CCC(=O)O)C(=O)N[C@H](C(=O)N[C@H]2CCCCNC(=O)[C@H](CC(N)=O)NC(=O)[C@@H](CC(=O)O)NC(=O)[C@H](Cc3cnc[nH]3)NC(=O)[C@@H](Cc3ccccc3)NC(=O)[C@H]([C@@H](C)CC)NC(=O)[C@@H](CCCN)NC2=O)[C@@H](C)CC)CS1 [Bacitracin] ({Ileψ(thiazoline)Cys}-L[dE]IK[dOrn]I[dF]H[dD]N; lactam 4-C)
- lowering of bacterial or spore populations [1]: no evidence of lowering the bacterial or spore populations

Compound: OO [HP, hydrogen peroxide]
- Cells with SA-β-Gal expression [2]: 86%
- Apoptosis, cells exposing Annexin-V ([3]; 5 min): 15%
- Apoptosis, cells exposing Annexin-V ([3]; 30 min): 20%

Compound: O=P1(N(CCCl)CCCl)NCCCO1 (centres unmarked) [cyclophosphamide]
- number of polychromatic erythrocytes bearing micronuclei ([4]; females, negative control 1.0): 12.6
- PCE/NCE ratio ([4]; females, negative control 1.02): 0.73
- number of polychromatic erythrocytes bearing micronuclei ([4]; males, negative control 0.6): 11.0
- PCE/NCE ratio ([4]; males, negative control 0.90): 0.77
